pIC50: −log10 of the molar value.
Experiments:
PAR4 [1] = target: T1, PAR4 (Homo sapiens, UniProt Q96RI0); assay: PAR4 component of α-thrombin activation (α-thrombin + vorapaxar) in human platelets; format: cell-based; parameters: endogenous in cells; host or cells: platelets; details: for pIC50: α-thrombin + vorapaxar, read-out: PAR4 IC50 (Figure 6D)
T1 sequence (Q96RI0 18-385): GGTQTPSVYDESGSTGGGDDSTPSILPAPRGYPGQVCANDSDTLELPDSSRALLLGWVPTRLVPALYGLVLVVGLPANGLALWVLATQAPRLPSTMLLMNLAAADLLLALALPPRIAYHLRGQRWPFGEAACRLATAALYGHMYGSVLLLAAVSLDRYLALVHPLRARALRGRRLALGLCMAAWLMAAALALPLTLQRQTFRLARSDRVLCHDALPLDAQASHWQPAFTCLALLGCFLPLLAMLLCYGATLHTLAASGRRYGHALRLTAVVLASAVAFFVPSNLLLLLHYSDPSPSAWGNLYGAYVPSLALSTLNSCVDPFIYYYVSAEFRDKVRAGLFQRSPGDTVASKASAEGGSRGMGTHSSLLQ
Protocol: Figure 5 (A) Off-target controls: % of vehicle control for γ-thrombin (100 nM), PAR4 component of α-thrombin (5 nM α-thrombin +1 μM vorapaxar), PAR4 agonist peptide 200 μM AYPGKF, 200 μM PAR1 agonist peptide SFLLRN, and GPVI agonist convulxin 3.16 nM.
Figure 6 (A) Distribution of IC50 values for the inhibition of human PAR4 vs mouse PAR4. Red indicates the 2 compounds highlighted in panels (B–D). (B) Structures of exemplar compounds. (C) Concentration–response curves for human vs mouse PAR4. (D) Concentration–response curves for the inhibition of pharmacologically defined α-thrombin components for PAR1 (α-thrombin + BMS-3) vs PAR4 (α-thrombin + vorapaxar).
α-thrombin activates both PAR1 and PAR4, and the individual PAR1 or PAR4 component can be isolated pharmacologically. […] With 20 substitutions between PAR1 and PAR4 within 5 Å of the predicted 31 binding site, the basis for these selectivity differences is not known (Figure S4). As we continue to probe for a selective PAR4 antagonist, mutagenesis of individual residues will be conducted.
Compounds were screened for inhibition activity against human PAR4 using 100 nM γ-thrombin or 200 μM PAR4-AP in a single-point assay (10 μM test compound). Dose–response curves were conducted for active compounds. Active compounds were also assessed at a single concentration of 10 μM against other agonists, including the PAR4 component of α-thrombin (5 nM α-thrombin +1 μM vorapaxar), the PAR1 agonist peptide (20 μM SFFLRN), and the GPVI receptor agonist convulxin (3 nM).

PAR4 [2] = target: T1, PAR4; assay: Human platelet activity assay, flow cytometry, γ-thrombin activation; format: cell-based; parameters: endogenous in cells; host or cells: washed human platelets from healthy volunteers
Protocol: To test the antagonistic effect of the compounds on PAR4, a flow cytometry assay of human platelets was employed. Each compound was screened at 10 μM in human platelets using flow cytometry for GPIIbIIIa activation (PAC1) and P-selectin (CD62p) expression as previously described.[4] Activation of GPIIbIIIa allows interaction with divalent fibrinogen or multivalent von Willebrand factor, leading to platelet aggregation.[41] PAR4 stimulation also triggers α-granule secretion containing P-selectin.[5] […] Platelets were treated with each test compound or vehicle control DMSO before activating with γ-thrombin (100 nM) or PAR4 agonist peptide mimetic (200 μM, “PAR4-AP” AYPGKF) for 30 min. γ-thrombin activates PAR4 but not PAR1.[42]
Activation of washed human platelets was monitored by flow cytometry for the detection of PAC1 (GPIIbIIIa activation) and CD62p (P-selectin expression) binding as previously described.[4] Human platelets were obtained from healthy volunteers. The Vanderbilt University Internal Review Board approved these studies. Informed consent was obtained from all individuals prior to the blood draw. 10 mL of whole blood was collected into 0.32% Na citrate. Platelet-rich plasma was collected after room-temperature centrifugation at 1100 rpm for 15 min on a Thermo Forma 400 centrifuge (Thermo Fisher, Waltham, MA). 1/10 volume of acid citrate dextrose (ACD) buffer was added to the collected supernatant and incubated for 10 min. After centrifugation at 2400 rpm for 10 min, the platelet pellet was resuspended in 1 mL Tyrode’s buffer (“TBB”: 15 mM HEPES, 0.33 mM NaH2PO4, pH 6.4, 138 mM NaCl, 2.7 mM KCl, 1 mM MgCl2, 5.5 mM dextrose, 0.1% bovine serum albumin). Platelets were collected, counted on a Z1 Coulter Particle Counter (Beckman Coulter, Brea, CA), and diluted in TBB to 1.5 × 10^7 platelets/mL. 60 uL of platelets were aliquoted to each tube and preincubated with 40 μL of TBB with antibodies PAC1 FITC (Becton Dickinson, Franklin Lakes NJ) and P-selectin PE (Becton Dickinson) and either test compound antagonist or DMSO vehicle control for 20 min. Platelets were then activated with 100 nM γ-thrombin or other agonists for 30 min. Samples were then fixed by adding 100 μL of 2% paraformaldehyde. After 30 min, samples were diluted by adding 300 μL of phosphate-buffered saline (PBS) and stored at 4C. Data were collected on a three-laser BD LSRFortessa (Becton Dickinson) and analyzed with FlowJo software (FlowJo LLC, Ashland, OR). The mean fluorescence intensity (geometric) of PE and FITC was determined from 30,000 events after compensation correction. Data were normalized to vehicle (DMSO) controls.
Compounds were screened for inhibition activity against human PAR4 using 100 nM γ-thrombin or 200 μM PAR4-AP in a single-point assay (10 μM test compound).

[3] = human platelets, 100 nM γ-thrombin, GPIIbIIIa activation (PAC1), read-out: Human Platelets PAC1 IC50
[4] = human platelets, 100 nM γ-thrombin, P-selectin (CD62p), read-out: Human Platelets P-Sel IC50
[5] = Table 4 summary, read-out: human PAR4 IC50

Compound	inhibition of PAR4 component of α-thrombin activation (PAR4 [1]; 10 μM compound, 5 nM α-thrombin + 1 μM vorapaxar)	inhibition at 10 µM (PAR4 [2]; 10 μM compound, 100 nM γ-thrombin, human platelets, read-out: inhibition of platelet activation against γ-thrombin)	pIC50 (PAR4 [2]; [3])	pIC50 (PAR4 [2]; [4])	pIC50 (PAR4 [2]; γ-thrombin activation of PAR4, human platelets, read-out: IC50, concentration-response curve (CRC))	pIC50 (PAR4 [2]; [5])	pIC50 (PAR4 [1])
Cc1nc(NC(=O)c2cc(-c3ccccc3)n(-c3ccccc3)n2)n[nH]1 [Compound 7]	did inhibit	~50%	5.64	5.56	5.64		
Cc1cc(C(=O)Nc2n[nH]c(OC(F)F)n2)nn1-c1ccccc1 [Compound 9]			6.23	6.20		6.23	
Cn1nc(C(=O)Nc2n[nH]c(-c3c(F)cccc3F)n2)cc1C1CC1 [Compound 12]			6.87	6.82		6.87	6.83
O=C(Nc1nc[nH]n1)c1nn(-c2ccccc2)c2c1CCC2 [Compound 17]			6.30	6.22		6.30	
O=C(Nc1n[nH]c(-c2ccc(F)cc2F)n1)c1nn(-c2ccccc2)c2c1CCCC2 [Compound 31]			6.93	6.87			6.79
COc1cccc(-c2nc(NC(=O)c3nn(-c4ccccc4)c4c3CCCC4)n[nH]2)c1 [Compound 32]			6.92	6.75		6.92	

Source: PMC11020070, “Discovery of Protease-Activated Receptor 4 (PAR4)-Tethered Ligand Antagonists Using Ultralarge Virtual Screening” (ACS Pharmacology & Translational Science, 2024)
